This is an account of results in patent US12552848B2, “Hydrochloride salts of C5a receptor agonist peptides” (Board of Regents of the University of Nebraska, priority 2017, dated 2026).

Non-standard residues stand in square brackets, D forms with d. No end group written: not given here. NMeL = CN[C@@H](CC(C)C)C(=O)O

For one test, the system named is mice spleen cells. The test can be described thus: IL-6 kinetics: IL-6 release over time from mice spleen cells. It counts as cell-based, mouse. The note with it: for IL-6: 100 μg/mL, mice spleen cells, ± SD. As to the method: (§1) Salt forms of EP67 (SEQ ID NO:2) generated using the above procedures were incubated at varying concentrations with murine splenocytes over time.
Next, IL-6 kinetics were investigated by incubating mice spleen cells with 100 μg/mL of each salt form, and the release was examined over time.

The next test has as its system mouse spleen cells. The test can be described thus: 24-hour dose response: IL-6 release from mouse spleen cells (ELISA of supernatants). It counts as cell-based. As to conditions: for IL-6: 24 hrs incubation, mouse spleen cells, ± SD. As to the method:
as §1
A 24-hour dose response was investigated by incubating mouse spleen cells for 24 hrs with varying concentrations of the EP67 salts. Supernatants were collected and assayed for IL-6 by ELISA.

For “EP67•HCl: HCl salt form of EP67 (SEQ ID NO:2), a response selective C-terminal analog of C5a (YSFKDMP[NMeL][dA]R-OH; also: HCl salt)”, the IL-6 worked out at 47 ± 1 pg/mL with mice spleen cells (time collected 6 hr); 1163 ± 2 pg/mL in the test on mice spleen cells (time collected 24 hr); 923 ± 6 pg/mL in the test on mice spleen cells (time collected 48 hr); 200 ± 11 pg/mL in the test on mice spleen cells (time collected 72 hr); 176 ± 3 pg/mL with mouse spleen cells (0.1 μg/mL activator); 225 ± 1 pg/mL with mouse spleen cells (1.0 μg/mL activator). Further, the IL-6 in the test on mouse spleen cells (10 μg/mL activator) turned out to be 738 ± 5 pg/mL; in the test on mouse spleen cells (100 μg/mL activator), 1163 ± 2 pg/mL. In addition, in the test on mice spleen cells (murine splenocytes, over time), the “kinetics of IL-6 release (time to maximal release), compared with other salt forms” value is “maximal IL-6 release quicker than the other two salt forms”. The “total amount of cytokine (IL-6) released from murine splenocytes, compared with other salt forms” value in the test on mouse spleen cells (varying concentrations, murine splenocytes) is listed as “outperformed the acetate (OAc) and, particularly, the TEA salt forms”.
In the case of “EP67•OAc^−: acetate salt form of EP67 (SEQ ID NO:2), comparator salt (YSFKDMP[NMeL][dA]R-OH; also: acetate salt)”, the IL-6 with mice spleen cells (time collected 6 hr) was found to be 188 ± 1 pg/mL; with mice spleen cells (time collected 24 hr), 325 ± 23 pg/mL; with mice spleen cells (time collected 48 hr), 900 ± 17 pg/mL; with mouse spleen cells (0.1 μg/mL activator) it was 188 ± 1 pg/mL; in the test on mouse spleen cells (1.0 μg/mL activator) it was 325 ± 23 pg/mL; in the test with mouse spleen cells (10 μg/mL activator) it was 225 ± 20 pg/mL. In addition, the IL-6 in the test on mouse spleen cells (100 μg/mL activator) was found to be 780 ± 9 pg/mL.
As for “EP67•TFA: TFA salt form of EP67 (SEQ ID NO:2), comparator salt (YSFKDMP[NMeL][dA]R-OH; also: TFA salt)”, the IL-6 in the test with mice spleen cells (time collected 6 hr) was 55 ± 1 pg/mL; in the test with mice spleen cells (time collected 24 hr), 803 ± 6 pg/mL; with mice spleen cells (time collected 48 hr) it was 442 ± 13 pg/mL; in the test with mice spleen cells (time collected 72 hr), 75 ± 6 pg/mL; with mouse spleen cells (0.1 μg/mL activator) it was 178 ± 1 pg/mL; with mouse spleen cells (1.0 μg/mL activator), 185 ± 2 pg/mL. In addition, the IL-6 with mouse spleen cells (10 μg/mL activator) was 308 ± 7 pg/mL; in the test on mouse spleen cells (100 μg/mL activator), 803 ± 6 pg/mL.
